According to ChEMBL document CHEMBL1129671, “Substituted (pyrroloamino)pyridines: potential agents for the treatment of Alzheimer's disease” (J Med Chem, 1996):
pIC50: −log10 of the molar value.

Experiments:
[1] = target: T1, Adrenergic receptor alpha-2 (Rattus norvegicus, UniProt P22086+P19328+P22909); assay: Compound was tested for inhibition of [3H]clonidine against Alpha-2 adrenergic receptor from rat cortical membranes using in vitro adrenergic receptor binding assay.; format: cell membranes, Membrane
T1 sequence (P22086 whole entry): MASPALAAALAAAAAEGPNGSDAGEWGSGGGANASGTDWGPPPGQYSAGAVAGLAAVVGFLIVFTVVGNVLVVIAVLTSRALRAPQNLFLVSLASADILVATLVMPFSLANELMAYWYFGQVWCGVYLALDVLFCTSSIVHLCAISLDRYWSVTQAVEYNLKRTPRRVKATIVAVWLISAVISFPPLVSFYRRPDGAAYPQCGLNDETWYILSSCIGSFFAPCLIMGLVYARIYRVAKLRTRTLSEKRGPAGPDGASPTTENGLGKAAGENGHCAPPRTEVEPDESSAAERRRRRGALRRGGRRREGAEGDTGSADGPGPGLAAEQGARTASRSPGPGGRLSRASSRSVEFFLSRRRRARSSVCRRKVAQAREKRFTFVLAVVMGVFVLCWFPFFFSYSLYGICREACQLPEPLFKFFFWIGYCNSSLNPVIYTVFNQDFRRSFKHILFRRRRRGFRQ
T1 sequence (P19328 whole entry): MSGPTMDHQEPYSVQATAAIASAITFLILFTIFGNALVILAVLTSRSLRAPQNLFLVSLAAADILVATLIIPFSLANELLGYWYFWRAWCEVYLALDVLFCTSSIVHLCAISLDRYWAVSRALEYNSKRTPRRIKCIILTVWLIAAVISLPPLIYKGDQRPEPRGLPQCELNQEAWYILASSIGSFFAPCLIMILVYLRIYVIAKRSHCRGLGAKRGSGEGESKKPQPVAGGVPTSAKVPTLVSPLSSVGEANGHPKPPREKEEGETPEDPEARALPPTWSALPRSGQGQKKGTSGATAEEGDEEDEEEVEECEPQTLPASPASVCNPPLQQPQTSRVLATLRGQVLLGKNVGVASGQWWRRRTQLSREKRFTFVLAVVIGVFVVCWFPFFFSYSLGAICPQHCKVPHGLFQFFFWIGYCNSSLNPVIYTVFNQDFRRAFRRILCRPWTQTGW
T1 sequence (P22909 whole entry): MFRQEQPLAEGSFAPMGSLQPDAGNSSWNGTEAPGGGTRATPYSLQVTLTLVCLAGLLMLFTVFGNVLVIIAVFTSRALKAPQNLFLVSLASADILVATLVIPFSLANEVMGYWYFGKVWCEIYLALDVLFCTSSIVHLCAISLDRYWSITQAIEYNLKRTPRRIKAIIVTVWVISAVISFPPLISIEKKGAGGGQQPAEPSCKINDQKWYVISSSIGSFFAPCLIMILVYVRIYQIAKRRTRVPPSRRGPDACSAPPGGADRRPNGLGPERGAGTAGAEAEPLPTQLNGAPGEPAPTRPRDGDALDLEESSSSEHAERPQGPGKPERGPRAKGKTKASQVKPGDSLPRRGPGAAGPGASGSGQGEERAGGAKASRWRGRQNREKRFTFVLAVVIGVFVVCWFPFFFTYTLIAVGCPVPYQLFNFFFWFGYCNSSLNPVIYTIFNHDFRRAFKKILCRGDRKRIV

[2] = target: T1, Adrenergic receptor alpha-2; assay: Compound was tested for inhibition of [3H]yohimbine against Alpha-2 adrenergic receptor from rat cortical membranes using in vitro adrenergic receptor binding assay.; format: cell membranes, Membrane
Mus musculus = assay: Antagonistic activity against scopolamine-induced behavioral deficits in mice by subcutaneous administration at a concentration of 2.5 mg/kg; format: functional
[3] = target: T2, Muscarinic acetylcholine receptor M1 (Rattus norvegicus, UniProt P08482); assay: Compound was tested for inhibition of [3H]pirenzepine binding against Muscarinic acetylcholine receptor M1 from rat cortical membranes using in vitro cholinergic receptor binding assay.; format: cell membranes, Membrane
T2 sequence (P08482 whole entry): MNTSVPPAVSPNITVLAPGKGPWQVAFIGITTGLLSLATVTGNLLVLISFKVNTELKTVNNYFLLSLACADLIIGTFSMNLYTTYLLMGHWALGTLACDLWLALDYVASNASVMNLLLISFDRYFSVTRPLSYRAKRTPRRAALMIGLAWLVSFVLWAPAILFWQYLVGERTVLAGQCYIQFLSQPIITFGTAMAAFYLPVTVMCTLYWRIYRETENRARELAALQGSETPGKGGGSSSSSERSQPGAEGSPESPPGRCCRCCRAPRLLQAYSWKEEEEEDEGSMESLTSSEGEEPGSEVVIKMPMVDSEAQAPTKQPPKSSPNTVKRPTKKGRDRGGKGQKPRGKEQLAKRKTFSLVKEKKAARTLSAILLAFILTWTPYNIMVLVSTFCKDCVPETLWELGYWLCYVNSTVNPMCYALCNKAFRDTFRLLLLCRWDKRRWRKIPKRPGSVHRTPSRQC

C=Cc1cccn1N(C)c1ccncc1
IC50 [1]: 0.21 µM
IC50 [2]: 0.95 µM
Response (Mus musculus): 27%
pIC50 [3]: 5.29
